According to paper PMC7016953 (Cells, 2020):

Tested on: T1, TRPC7
T1 construct: expressed in transfected cells
Assay: Whole-cell patch-clamp recordings in HEK TRPC7-YFP cells
Format: cell-based, human
Settings: 100 µM artemisinin
Experimental: The recordings of TRPC3, TRPC6, or TRPC7 membrane currents in HEK293 or PC12 cells were realized by using a Multiclamp 700B amplifier with a Digidata 1440A digitizer controlled by the PClamp 10 software (all Molecular Devices, Sunnyvale, CA, U.S.A.). Recordings were obtained at room temperature either in the whole-cell or in an outside-out configuration as indicated. Cells were seeded as described above, but at lower density, mounted in a chamber (Warner Instruments, Hamden, CT; U.S.A.), placed onto the stage of an inverted microscope, and perfused with required solution. The standard extracellular solution contained 140 mM NaCl, 5 mM CsCl, 2 mM MgCl2, 1 mM CaCl2, 10 mM HEPES, and 0.035% BSA adjusted to pH 7.4 with NaOH. The composition of standard intracellular solution was 140 mM CsCl, 1 mM MgCl2, 5 mM EGTA, and 10 mM HEPES adjusted to pH 7.25 with CsOH; the osmolarity was 295 mOsm l^−1. In outside-out measurements, the pipette solution contained 5 mM EGTA and 1.1 mM CaCl2 to achieve a calculated free Ca^2+ concentration of 100 nM.
Patch pipettes were pulled from borosilicate glass capillaries BG150F-8P (Science Products, Hofheim, Germany) with a PIP6 pipette puller (HEKA Elektronik, Lambrecht, Germany). […] In all whole-cell measurements, the series resistance was lower than 13 MΩ, and compensated by 70%. […]

C[C@@H]1CC[C@H]2[C@@H](C)C(=O)O[C@@H]3O[C@@]4(C)CC[C@@H]1[C@]32OO4 [artemisinin]
ionic currents in TRPC7-expressing HEK cells: only weakly enhanced
